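Interpolation was linear, between the two tested concentrations surrounding the appropriate level; five concentrations were tested over 48 hours in 96-well plates. GI50 marks 50% less growth. TGI: concentration producing complete growth inhibition.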
What was measured:
Assay in all cases: NCI tumour cell line growth inhibition, 48 h
NCI-H226 lung = test system: NCI-H226 lung
OVCAR-4 ovarian = test system: OVCAR-4 ovarian
OVCAR-5 ovarian = test system: OVCAR-5 ovarian
U251 CNS = test system: U251 CNS
EKVX NSCLC = test system: EKVX NSCLC
MDA-MB-231 breast = test system: MDA-MB-231 breast
NCI/ADR-RES ovarian = test system: NCI/ADR-RES ovarian
SF-295 CNS = test system: SF-295 CNS
UACC-62 melanoma = test system: UACC-62 melanoma
SK-MEL-2 melanoma = test system: SK-MEL-2 melanoma
HOP-92 NSCLC = test system: HOP-92 NSCLC
T-47D breast = test system: T-47D breast
NCI-H460 lung = test system: NCI-H460 lung
A498 renal = test system: A498 renal
SW-620 colon = test system: SW-620 colon
SK-MEL-28 melanoma = test system: SK-MEL-28 melanoma
RPMI-8226 leukemia = test system: RPMI-8226 leukemia
SF-539 CNS = test system: SF-539 CNS
LOX IMVI melanoma = test system: LOX IMVI melanoma
SF-268 CNS = test system: SF-268 CNS
OVCAR-8 ovarian = test system: OVCAR-8 ovarian
CCRF-CEM leukemia = test system: CCRF-CEM leukemia
TK-10 renal = test system: TK-10 renal
IGROV1 ovarian = test system: IGROV1 ovarian
NCI-H23 lung = test system: NCI-H23 lung
SNB-19 CNS = test system: SNB-19 CNS
SN12C renal = test system: SN12C renal
K-562 leukemia = test system: K-562 leukemia
SR leukemia = test system: SR leukemia
RXF 393 renal = test system: RXF 393 renal
HL-60(TB) leukemia = test system: HL-60(TB) leukemia
NCI-H522 lung = test system: NCI-H522 lung
HS 578T breast = test system: HS 578T breast
MCF7 breast = test system: MCF7 breast
MOLT-4 leukemia = test system: MOLT-4 leukemia
SK-MEL-5 melanoma = test system: SK-MEL-5 melanoma
DU-145 prostate = test system: DU-145 prostate
MALME-3M melanoma = test system: MALME-3M melanoma
MDA-MB-435 = test system: MDA-MB-435
BT-549 breast = test system: BT-549 breast
KM12 colon = test system: KM12 colon
UO-31 renal = test system: UO-31 renal
M14 melanoma = test system: M14 melanoma
PC-3 prostate = test system: PC-3 prostate
COLO 205 colon = test system: COLO 205 colon
SNB-75 CNS = test system: SNB-75 CNS
HCT-116 colon = test system: HCT-116 colon
UACC-257 melanoma = test system: UACC-257 melanoma
HOP-62 NSCLC = test system: HOP-62 NSCLC
CAKI-1 renal = test system: CAKI-1 renal
HT29 colon = test system: HT29 colon
SK-OV-3 ovarian = test system: SK-OV-3 ovarian
HCC-2998 colon = test system: HCC-2998 colon
A549 NSCLC = test system: A549 NSCLC
ACHN renal = test system: ACHN renal
786-0 renal = test system: 786-0 renal

FC(F)(F)c1cc(Br)cc(-c2cc(-c3ccc4c(c3)OCCO4)[nH]n2)c1
GI50 (NCI-H226 lung): 214 nM
TGI (NCI-H226 lung): > 100000 nM
TGI (OVCAR-4 ovarian): > 100000 nM
GI50 (OVCAR-5 ovarian): 348 nM
TGI (OVCAR-5 ovarian): > 100000 nM
GI50 (U251 CNS): 78.5 nM
TGI (U251 CNS): 4860 nM
GI50 (EKVX NSCLC): 645 nM
TGI (EKVX NSCLC): > 100000 nM
GI50 (MDA-MB-231 breast): 78.5 nM
TGI (MDA-MB-231 breast): > 100000 nM
GI50 (NCI/ADR-RES ovarian): 51.7 nM
TGI (NCI/ADR-RES ovarian): > 100000 nM
GI50 (SF-295 CNS): 31.8 nM
GI50 (UACC-62 melanoma): 39 nM
TGI (UACC-62 melanoma): > 100000 nM
GI50 (SK-MEL-2 melanoma): 162 nM
TGI (SK-MEL-2 melanoma): > 100000 nM
GI50 (HOP-92 NSCLC): 1150 nM
TGI (HOP-92 NSCLC): 5510 nM
GI50 (T-47D breast): 683 nM
TGI (T-47D breast): > 100000 nM
GI50 (NCI-H460 lung): 60.5 nM
TGI (NCI-H460 lung): 13900 nM
GI50 (A498 renal): 36.3 nM
TGI (A498 renal): 283 nM
GI50 (SW-620 colon): 54 nM
TGI (SW-620 colon): > 100000 nM
GI50 (SK-MEL-28 melanoma): 2680 nM
TGI (SK-MEL-28 melanoma): > 100000 nM
GI50 (RPMI-8226 leukemia): 306 nM
TGI (RPMI-8226 leukemia): > 22900 nM
GI50 (SF-539 CNS): 65.1 nM
TGI (SF-539 CNS): 757 nM
GI50 (LOX IMVI melanoma): 29.6 nM
TGI (LOX IMVI melanoma): > 100000 nM
GI50 (SF-268 CNS): 753 nM
TGI (SF-268 CNS): > 100000 nM
GI50 (OVCAR-8 ovarian): 213 nM
TGI (OVCAR-8 ovarian): 1470 nM
GI50 (CCRF-CEM leukemia): 87.5 nM
TGI (CCRF-CEM leukemia): > 39500 nM
GI50 (TK-10 renal): 12300 nM
TGI (TK-10 renal): 63400 nM
GI50 (IGROV1 ovarian): 153 nM
TGI (IGROV1 ovarian): > 100000 nM
GI50 (NCI-H23 lung): 376 nM
TGI (NCI-H23 lung): > 100000 nM
GI50 (SNB-19 CNS): 108 nM
TGI (SNB-19 CNS): > 100000 nM
GI50 (SN12C renal): 144 nM
TGI (SN12C renal): 4400 nM
GI50 (K-562 leukemia): 37.3 nM
TGI (K-562 leukemia): > 100000 nM
GI50 (SR leukemia): 36.4 nM
TGI (SR leukemia): > 100000 nM
GI50 (RXF 393 renal): 47.8 nM
TGI (RXF 393 renal): 450 nM
GI50 (HL-60(TB) leukemia): 33.6 nM
GI50 (NCI-H522 lung): 23.6 nM
TGI (NCI-H522 lung): 69.4 nM
GI50 (HS 578T breast): 259 nM
TGI (HS 578T breast): > 100000 nM
GI50 (MCF7 breast): 59 nM
TGI (MCF7 breast): > 100000 nM
GI50 (MOLT-4 leukemia): 196 nM
TGI (MOLT-4 leukemia): > 100000 nM
GI50 (SK-MEL-5 melanoma): 84.1 nM
TGI (SK-MEL-5 melanoma): 2540 nM
GI50 (DU-145 prostate): 284 nM
TGI (DU-145 prostate): > 100000 nM
GI50 (MALME-3M melanoma): 1600 nM
TGI (MALME-3M melanoma): > 100000 nM
GI50 (MDA-MB-435): 26.4 nM
TGI (MDA-MB-435): 773 nM
GI50 (BT-549 breast): 56.7 nM
TGI (BT-549 breast): 2220 nM
GI50 (KM12 colon): 59.6 nM
TGI (KM12 colon): > 52100 nM
GI50 (UO-31 renal): 201 nM
TGI (UO-31 renal): > 100000 nM
GI50 (M14 melanoma): 76.5 nM
TGI (M14 melanoma): > 38600 nM
GI50 (PC-3 prostate): 70.5 nM
TGI (PC-3 prostate): > 38500 nM
GI50 (COLO 205 colon): 109 nM
TGI (COLO 205 colon): 283 nM
GI50 (SNB-75 CNS): 120 nM
TGI (SNB-75 CNS): 925 nM
GI50 (HCT-116 colon): 42.4 nM
TGI (HCT-116 colon): 1620 nM
GI50 (UACC-257 melanoma): 2710 nM
TGI (UACC-257 melanoma): > 100000 nM
GI50 (HOP-62 NSCLC): 226 nM
TGI (HOP-62 NSCLC): > 100000 nM
GI50 (CAKI-1 renal): 79.3 nM
TGI (CAKI-1 renal): > 100000 nM
GI50 (HT29 colon): 42.6 nM
TGI (HT29 colon): 533 nM
GI50 (SK-OV-3 ovarian): 124 nM
TGI (SK-OV-3 ovarian): > 56600 nM
GI50 (HCC-2998 colon): 290 nM
TGI (HCC-2998 colon): > 100000 nM
GI50 (A549 NSCLC): 146 nM
TGI (A549 NSCLC): > 38100 nM
GI50 (ACHN renal): 75.2 nM
TGI (ACHN renal): > 100000 nM
GI50 (786-0 renal): 56.5 nM
TGI (786-0 renal): 3780 nM
